pIC50: −log10 of the molar value.
molecular target: RAC-alpha serine/threonine-protein kinase (Homo sapiens, UniProt P31749); experiment: Homogeneous Time-Resolved Fluorescence Resonance Energy Transfer Lance Assay; conditions: pH 7.4; 22 °C
Procedure: AKT1 was assayed using constitutively active Myr-AKT1 in low-binding 96-well plates. The kinase reactions were initiated by the addition of assay mix containing kinase assay buffer, ATP, and a biotinylated substrate peptide. After incubation, Phosphorylated biotin-GSK3alpha was detected by the time-resolved fluorescence resonance energy transfer Lance format with all reagents obtained from Perkin-Elmer. Subsequently, the plates were read in a Victor plate reader (Wallac/Perkin-Elmer).

Sequence of RAC-alpha serine/threonine-protein kinase (P31749 whole entry): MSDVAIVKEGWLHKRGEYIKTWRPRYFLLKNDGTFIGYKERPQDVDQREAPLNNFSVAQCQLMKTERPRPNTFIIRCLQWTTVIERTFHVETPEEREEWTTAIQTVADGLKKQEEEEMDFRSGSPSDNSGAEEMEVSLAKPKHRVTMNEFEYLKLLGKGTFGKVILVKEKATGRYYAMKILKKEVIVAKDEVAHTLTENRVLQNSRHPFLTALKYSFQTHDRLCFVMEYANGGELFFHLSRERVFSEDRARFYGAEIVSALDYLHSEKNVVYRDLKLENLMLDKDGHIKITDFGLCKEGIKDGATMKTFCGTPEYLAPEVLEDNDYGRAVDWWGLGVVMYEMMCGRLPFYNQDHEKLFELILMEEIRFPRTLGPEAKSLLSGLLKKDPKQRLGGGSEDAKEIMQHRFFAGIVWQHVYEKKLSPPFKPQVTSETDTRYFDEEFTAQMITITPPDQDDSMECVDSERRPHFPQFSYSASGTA

Compound | pIC50
C[C@H]1O[C@@H]2CC(=O)O[C@@H]2C2=C1C(=O)c1c(O)cccc1C2=O | 6.50
C[C@H]1O[C@@H]2CC(=O)O[C@@H]2C2=C1C(=O)c1c(ccc(C3C[C@@H](N(C)C)[C@H](O)[C@@H](C)O3)c1O)C2=O (some centres undefined) [Lactoquinomycin A] | 6.83
O=C1C[C@@H]2O[C@H](c3ccsc3)C3=C(C(=O)c4ccccc4C3=O)[C@@H]2O1 [Pyranonaphthoquinone (PNQ) lactone, 11e] | 7.00
O=C1C[C@H]2O[C@@H](c3ccsc3)C3=C(C(=O)c4ccccc4C3=O)[C@H]2O1 [Pyranonaphthoquinone (PNQ) lactone, 11f] | 6.91

Source: BindingDB's records for doi:10.1021/jm900075g (Wyeth Research, 2009)
